Consider 6 compounds from ChEMBL document CHEMBL4725315, “Structure-guided optimization of a novel class of ASK1 inhibitors with increased sp character and an exquisite selectivity profile” (Bioorg Med Chem Lett, 2020).

In data set [1] the target is T1, Mitogen-activated protein kinase kinase kinase 5 (Homo sapiens, UniProt Q99683).
T1 sequence (Q99683 whole entry): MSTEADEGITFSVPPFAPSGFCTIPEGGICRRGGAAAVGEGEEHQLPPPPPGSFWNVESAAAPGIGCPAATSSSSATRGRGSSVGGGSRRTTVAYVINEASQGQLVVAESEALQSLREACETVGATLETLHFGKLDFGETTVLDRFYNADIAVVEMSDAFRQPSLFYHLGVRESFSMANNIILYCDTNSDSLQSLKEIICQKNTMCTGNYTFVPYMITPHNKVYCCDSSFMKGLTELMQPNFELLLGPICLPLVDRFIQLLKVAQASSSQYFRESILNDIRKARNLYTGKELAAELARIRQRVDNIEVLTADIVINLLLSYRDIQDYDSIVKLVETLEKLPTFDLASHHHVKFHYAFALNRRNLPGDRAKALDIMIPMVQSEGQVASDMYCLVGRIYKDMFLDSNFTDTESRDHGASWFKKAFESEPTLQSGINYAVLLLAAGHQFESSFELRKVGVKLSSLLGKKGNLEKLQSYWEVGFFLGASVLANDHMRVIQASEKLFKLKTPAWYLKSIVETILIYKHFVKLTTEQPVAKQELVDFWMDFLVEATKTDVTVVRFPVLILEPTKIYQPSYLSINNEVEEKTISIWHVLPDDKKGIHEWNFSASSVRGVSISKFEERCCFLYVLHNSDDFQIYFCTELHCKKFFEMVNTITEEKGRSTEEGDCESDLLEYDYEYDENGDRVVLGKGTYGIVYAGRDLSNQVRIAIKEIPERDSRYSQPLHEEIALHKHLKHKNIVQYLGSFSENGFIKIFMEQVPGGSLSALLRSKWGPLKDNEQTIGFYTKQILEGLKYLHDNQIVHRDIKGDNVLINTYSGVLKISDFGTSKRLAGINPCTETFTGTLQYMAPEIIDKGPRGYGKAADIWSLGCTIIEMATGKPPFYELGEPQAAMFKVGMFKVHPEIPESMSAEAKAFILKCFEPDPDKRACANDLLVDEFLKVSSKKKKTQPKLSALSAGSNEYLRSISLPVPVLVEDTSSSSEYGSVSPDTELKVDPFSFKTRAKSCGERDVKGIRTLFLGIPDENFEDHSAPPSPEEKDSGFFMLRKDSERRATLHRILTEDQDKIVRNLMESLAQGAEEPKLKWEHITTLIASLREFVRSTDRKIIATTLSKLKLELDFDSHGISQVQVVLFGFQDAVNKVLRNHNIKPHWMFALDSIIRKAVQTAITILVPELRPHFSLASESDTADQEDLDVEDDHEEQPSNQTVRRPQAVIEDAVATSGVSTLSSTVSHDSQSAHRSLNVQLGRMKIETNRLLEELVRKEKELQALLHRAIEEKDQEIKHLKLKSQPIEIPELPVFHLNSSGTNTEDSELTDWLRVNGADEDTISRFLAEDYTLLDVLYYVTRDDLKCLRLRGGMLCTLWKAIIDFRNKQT
Description: Inhibition of ASK1 (unknown origin).

The target of the next data set is MAP kinase p38 (Homo sapiens, UniProt O15264+Q15759+Q16539+P53778). Description: Inhibition of p38 (unknown origin). It counts as protein assay.
In data set [2] the target is Epidermal growth factor receptor (Homo sapiens, UniProt P00533). Description: Inhibition of EGFR (unknown origin).
In data set [3] the target is T2, Receptor tyrosine-protein kinase erbB-4 (Homo sapiens, UniProt Q15303). Description: Inhibition of HER4 (unknown origin).
Data set [4] addresses Tyrosine-protein kinase Mer (Homo sapiens, UniProt Q12866). Description: Inhibition of MER (unknown origin).
The target in data set [5] is Proto-oncogene tyrosine-protein kinase receptor Ret (Homo sapiens, UniProt P07949). Put plainly: Inhibition of RET (unknown origin).
For data set [6], the target named is Rho-associated protein kinase 1 (Homo sapiens, UniProt Q13464). Description: Inhibition of ROCK1 (unknown origin).
In data set [7] the target is Tyrosine-protein kinase ITK/TSK (Homo sapiens, UniProt Q08881). Put plainly: Inhibition of ITK (unknown origin).
Data set [8] concerns the target T2, Receptor tyrosine-protein kinase erbB-4. Put plainly: Inhibition of ERBB4 (unknown origin).
In another data set the target is Ephrin type-A receptor 3 (Homo sapiens, UniProt P29320). Description: Inhibition of EPHA3 (unknown origin).
Data set [9] in a line: Inhibition of GSK3 (unknown origin). Also on record: species or system Homo sapiens.
For data set [10], the target named is Cyclin-dependent kinase 2 (Homo sapiens, UniProt P24941). Description: Inhibition of CDK2 (unknown origin).
Data set [11] deals with 5'-AMP-activated protein kinase catalytic subunit alpha-1 (Homo sapiens, UniProt Q13131). Description: Inhibition of PRKKA1 (unknown origin).
Data set [12] is described as follows: Metabolic stability in human hepatocytes assessed as hepatic extraction ratio. It counts as ADME, cell-based, Hepatocyte. The settings on record: read-out: ERH.
A further data set concerns MDR1 (human). Put plainly: Permeability across apical to basolateral side in pig LLC-PK1 cells expressing human MDR1. The settings on record: read-out: permeability. The data set is classed as ADME, cell-based, Sus scrofa.
Data set [13] can be described thus: Aqueous solubility of the compound in JP1 fluid at pH 1.2. The data set is classed as physicochemical.
Data set [14] is described as follows: Aqueous solubility of the compound in JP2 fluid at […]. It counts as physicochemical.
The nature of data set [15]: Drug absorption in male Sprague-Dawley rat at 1 mg/kg, […] by LC-MS/MS analysis. It counts as ADME, organism-based. The settings on record: in vivo, read-out: Drug absorption.
Data set [16] can be described thus: Oral bioavailability in male Sprague-Dawley rat at 5 mg/kg. It counts as ADME, organism-based. The settings on record: in vivo.
Data set [17] addresses Leucine-rich repeat serine/threonine-protein kinase 2 (Homo sapiens, UniProt Q5S007). Description: Inhibition of recombinant human GST-tagged LRRK2 expressed in baculovirus expression system.
The target in data set [18] is Ribosomal protein S6 kinase alpha-2 (Homo sapiens, UniProt Q15349). Description: Inhibition of recombinant human full-length GST-tagged RSK3 expressed in insect cells.
The target of data set [19] is Serine/threonine-protein kinase D1 (Homo sapiens, UniProt Q15139). Description: Inhibition of recombinant human full-length GST-tagged PKCmu expressed in baculovirus expression system.
For data set [20], the target named is Ribosomal protein S6 kinase alpha-3 (Homo sapiens, UniProt P51812). Put plainly: Inhibition of recombinant human full-length His-tagged RSK2 expressed in baculovirus expression system.
The target of data set [21] is Ribosomal protein S6 kinase alpha-6 (Homo sapiens, UniProt Q9UK32). Put plainly: Inhibition of recombinant human full-length GST-tagged RSK4 expressed in baculovirus expression system.
Data set [22] addresses Serine/threonine-protein kinase D2 (Homo sapiens, UniProt Q9BZL6). Put plainly: Inhibition of recombinant human full-length GST-tagged PRKD2 expressed in baculovirus expression system.
Data set [23] addresses Casein kinase I isoform gamma-1 (Homo sapiens, UniProt Q9HCP0). Description: Inhibition of CK1gamma1 (unknown origin).
The target in data set [24] is Casein kinase I isoform gamma-3 (Homo sapiens, UniProt Q9Y6M4). Put plainly: Inhibition of CK1gamma3 (unknown origin).
For data set [25], the target named is T1, Mitogen-activated protein kinase kinase kinase 5. Put plainly: Inhibition of ASK1 (unknown origin) by cell based assay.
The target is the same in data set [26]. Description: Binding affinity to ASK1 (unknown origin).
The species entered for data set [27] is Homo sapiens. Description: Selectivity ratio of IC50 for inhibition of recombinant human GST-tagged LRRK2 expressed in baculovirus expression system to IC50 for inhibition of ASK1 (unknown origin).
Data set [28] is filed under the species Homo sapiens. Description: Selectivity ratio of IC50 for inhibition of recombinant human full-length GST-tagged RSK3 expressed in insect cells to IC50 for inhibition of ASK1 (unknown origin).
The species entered for data set [29] is Homo sapiens. Put plainly: Selectivity ratio of IC50 for inhibition of recombinant human full-length GST-tagged PKCmu expressed in baculovirus expression system to IC50 for inhibition of ASK1 (unknown origin).
The species entered for data set [30] is Homo sapiens. Description: Selectivity ratio of IC50 for inhibition of recombinant human full-length His-tagged RSK2 expressed in baculovirus expression system to IC50 for inhibition of ASK1 (unknown origin).
The species entered for data set [31] is Homo sapiens. Description: Selectivity ratio of IC50 for inhibition of recombinant human full-length GST-tagged RSK4 expressed in baculovirus expression system to IC50 for inhibition of ASK1 (unknown origin).
The species named for data set [32] is Homo sapiens. Put plainly: Selectivity ratio of IC50 for inhibition of recombinant human full-length GST-tagged PRKD2 expressed in baculovirus expression system to IC50 for inhibition of ASK1 (unknown origin).
The species entered for data set [33] is Homo sapiens. Description: Selectivity ratio of IC50 for inhibition of CK1gamma1 (unknown origin) to IC50 for inhibition of ASK1 (unknown origin).
The species entered for data set [34] is Homo sapiens. Description: Selectivity ratio of IC50 for inhibition of CK1gamma3 (unknown origin) to IC50 for inhibition of ASK1 (unknown origin).

Values after ≈ are worked out from the molar mass of the structure shown.

T2 sequence (Q15303 whole entry): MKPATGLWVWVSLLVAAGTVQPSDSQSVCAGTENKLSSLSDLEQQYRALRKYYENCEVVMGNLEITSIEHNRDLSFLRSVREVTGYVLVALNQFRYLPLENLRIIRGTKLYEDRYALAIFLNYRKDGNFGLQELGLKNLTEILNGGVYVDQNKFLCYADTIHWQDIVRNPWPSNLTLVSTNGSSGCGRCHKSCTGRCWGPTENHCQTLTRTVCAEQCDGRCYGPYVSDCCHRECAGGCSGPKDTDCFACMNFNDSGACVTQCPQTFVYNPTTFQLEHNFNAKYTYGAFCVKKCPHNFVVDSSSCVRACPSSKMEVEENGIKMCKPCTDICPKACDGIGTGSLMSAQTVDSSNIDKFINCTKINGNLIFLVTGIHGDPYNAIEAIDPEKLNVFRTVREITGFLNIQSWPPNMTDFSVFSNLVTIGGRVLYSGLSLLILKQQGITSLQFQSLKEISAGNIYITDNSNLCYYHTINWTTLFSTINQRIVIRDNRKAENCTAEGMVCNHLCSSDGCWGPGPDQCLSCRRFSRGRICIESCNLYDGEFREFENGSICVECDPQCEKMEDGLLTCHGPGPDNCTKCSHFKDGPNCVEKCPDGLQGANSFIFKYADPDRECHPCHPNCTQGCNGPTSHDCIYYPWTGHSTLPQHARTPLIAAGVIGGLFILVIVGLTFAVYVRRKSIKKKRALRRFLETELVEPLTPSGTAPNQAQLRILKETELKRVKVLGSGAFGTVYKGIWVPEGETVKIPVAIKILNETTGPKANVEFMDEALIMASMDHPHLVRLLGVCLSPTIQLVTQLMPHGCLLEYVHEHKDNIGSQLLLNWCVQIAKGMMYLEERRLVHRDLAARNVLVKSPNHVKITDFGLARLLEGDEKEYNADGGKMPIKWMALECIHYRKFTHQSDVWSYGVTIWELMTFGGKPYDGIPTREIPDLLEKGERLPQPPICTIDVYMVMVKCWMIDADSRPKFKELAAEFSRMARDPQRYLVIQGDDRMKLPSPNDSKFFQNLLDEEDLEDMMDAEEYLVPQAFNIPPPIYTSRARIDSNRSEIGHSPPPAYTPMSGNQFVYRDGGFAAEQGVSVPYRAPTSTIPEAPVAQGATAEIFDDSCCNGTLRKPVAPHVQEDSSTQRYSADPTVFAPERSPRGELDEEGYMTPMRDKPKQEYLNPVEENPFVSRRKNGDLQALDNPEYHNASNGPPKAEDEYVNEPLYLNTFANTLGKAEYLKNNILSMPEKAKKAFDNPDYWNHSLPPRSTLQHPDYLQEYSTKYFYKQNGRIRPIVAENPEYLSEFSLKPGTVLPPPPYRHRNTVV
Sequence of Rho-associated protein kinase 1 (Q13464 whole entry): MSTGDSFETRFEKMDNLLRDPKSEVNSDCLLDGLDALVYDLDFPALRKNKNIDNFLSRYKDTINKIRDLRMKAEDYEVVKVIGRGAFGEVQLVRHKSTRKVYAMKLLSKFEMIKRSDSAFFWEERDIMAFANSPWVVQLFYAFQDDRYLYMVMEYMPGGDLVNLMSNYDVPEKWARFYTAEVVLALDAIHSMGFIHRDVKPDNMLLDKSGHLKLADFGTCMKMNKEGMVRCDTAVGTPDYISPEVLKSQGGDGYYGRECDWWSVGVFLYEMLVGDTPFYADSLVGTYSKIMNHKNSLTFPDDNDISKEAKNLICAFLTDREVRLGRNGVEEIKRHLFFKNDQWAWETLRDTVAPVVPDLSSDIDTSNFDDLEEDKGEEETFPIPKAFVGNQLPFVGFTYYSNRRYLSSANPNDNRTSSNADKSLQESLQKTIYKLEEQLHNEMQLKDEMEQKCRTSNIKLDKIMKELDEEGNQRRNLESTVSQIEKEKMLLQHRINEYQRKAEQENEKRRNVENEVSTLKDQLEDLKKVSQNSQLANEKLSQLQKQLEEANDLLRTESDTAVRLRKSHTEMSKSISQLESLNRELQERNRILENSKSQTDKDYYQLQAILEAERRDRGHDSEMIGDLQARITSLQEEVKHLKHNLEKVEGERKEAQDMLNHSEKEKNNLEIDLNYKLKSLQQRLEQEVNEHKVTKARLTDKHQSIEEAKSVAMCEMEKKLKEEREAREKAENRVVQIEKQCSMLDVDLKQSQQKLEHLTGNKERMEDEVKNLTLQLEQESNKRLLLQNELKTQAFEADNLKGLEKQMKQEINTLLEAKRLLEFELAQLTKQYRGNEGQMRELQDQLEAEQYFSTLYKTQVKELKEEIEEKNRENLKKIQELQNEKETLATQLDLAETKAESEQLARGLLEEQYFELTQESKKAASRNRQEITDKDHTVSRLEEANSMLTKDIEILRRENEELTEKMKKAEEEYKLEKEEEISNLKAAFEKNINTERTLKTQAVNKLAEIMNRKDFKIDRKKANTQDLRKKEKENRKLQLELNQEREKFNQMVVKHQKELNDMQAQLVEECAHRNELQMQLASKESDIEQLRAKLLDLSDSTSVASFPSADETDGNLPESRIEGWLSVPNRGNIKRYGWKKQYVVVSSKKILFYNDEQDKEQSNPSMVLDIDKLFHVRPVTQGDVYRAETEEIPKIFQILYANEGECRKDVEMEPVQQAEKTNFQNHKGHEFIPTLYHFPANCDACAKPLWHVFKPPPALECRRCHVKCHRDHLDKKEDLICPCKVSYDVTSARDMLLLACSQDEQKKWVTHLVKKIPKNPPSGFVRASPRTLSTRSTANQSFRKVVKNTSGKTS
Sequence of 5'-AMP-activated protein kinase catalytic subunit alpha-1 (Q13131 whole entry): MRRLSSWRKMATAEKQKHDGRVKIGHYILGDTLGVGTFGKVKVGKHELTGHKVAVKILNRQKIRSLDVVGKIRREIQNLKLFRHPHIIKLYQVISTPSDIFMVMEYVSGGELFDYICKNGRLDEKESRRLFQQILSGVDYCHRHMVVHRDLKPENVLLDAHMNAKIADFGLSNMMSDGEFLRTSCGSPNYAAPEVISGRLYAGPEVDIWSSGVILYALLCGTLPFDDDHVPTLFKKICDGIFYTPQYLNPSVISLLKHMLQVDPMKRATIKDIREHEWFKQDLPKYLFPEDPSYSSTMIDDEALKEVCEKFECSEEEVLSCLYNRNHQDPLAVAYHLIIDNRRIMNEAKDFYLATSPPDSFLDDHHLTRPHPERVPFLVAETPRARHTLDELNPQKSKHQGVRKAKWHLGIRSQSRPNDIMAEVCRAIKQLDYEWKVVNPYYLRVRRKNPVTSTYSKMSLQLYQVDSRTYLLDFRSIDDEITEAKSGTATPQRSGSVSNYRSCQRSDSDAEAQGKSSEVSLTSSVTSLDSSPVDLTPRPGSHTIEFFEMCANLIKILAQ
Sequence of Proto-oncogene tyrosine-protein kinase receptor Ret (P07949 whole entry): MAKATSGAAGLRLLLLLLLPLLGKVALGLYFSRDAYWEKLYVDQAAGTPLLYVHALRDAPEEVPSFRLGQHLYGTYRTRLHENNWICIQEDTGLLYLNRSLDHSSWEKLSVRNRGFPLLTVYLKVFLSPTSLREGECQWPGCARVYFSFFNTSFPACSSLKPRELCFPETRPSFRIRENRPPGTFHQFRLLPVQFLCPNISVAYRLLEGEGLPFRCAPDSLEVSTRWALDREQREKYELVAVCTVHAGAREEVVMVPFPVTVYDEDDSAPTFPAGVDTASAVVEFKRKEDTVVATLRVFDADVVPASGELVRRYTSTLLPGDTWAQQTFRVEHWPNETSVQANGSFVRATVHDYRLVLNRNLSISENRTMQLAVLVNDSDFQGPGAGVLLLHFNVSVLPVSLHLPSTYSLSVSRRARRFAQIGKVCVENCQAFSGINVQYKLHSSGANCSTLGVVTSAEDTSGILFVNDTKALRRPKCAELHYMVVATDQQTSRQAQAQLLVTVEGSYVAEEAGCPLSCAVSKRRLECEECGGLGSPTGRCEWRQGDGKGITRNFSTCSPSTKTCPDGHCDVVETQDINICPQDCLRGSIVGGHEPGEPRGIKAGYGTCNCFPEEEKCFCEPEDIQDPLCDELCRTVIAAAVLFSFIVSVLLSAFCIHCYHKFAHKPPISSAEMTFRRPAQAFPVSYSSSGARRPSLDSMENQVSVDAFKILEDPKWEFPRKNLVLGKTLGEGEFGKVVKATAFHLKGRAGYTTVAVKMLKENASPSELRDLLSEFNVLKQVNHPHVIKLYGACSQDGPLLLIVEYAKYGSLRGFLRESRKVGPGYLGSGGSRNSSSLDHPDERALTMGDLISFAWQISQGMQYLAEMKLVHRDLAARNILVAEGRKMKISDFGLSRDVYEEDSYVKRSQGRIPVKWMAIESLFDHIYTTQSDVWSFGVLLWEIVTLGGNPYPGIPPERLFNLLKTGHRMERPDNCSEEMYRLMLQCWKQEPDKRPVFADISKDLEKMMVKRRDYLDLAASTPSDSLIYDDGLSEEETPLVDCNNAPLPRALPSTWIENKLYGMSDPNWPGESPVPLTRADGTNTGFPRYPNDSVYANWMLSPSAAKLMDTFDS
Sequence of Tyrosine-protein kinase ITK/TSK (Q08881 whole entry): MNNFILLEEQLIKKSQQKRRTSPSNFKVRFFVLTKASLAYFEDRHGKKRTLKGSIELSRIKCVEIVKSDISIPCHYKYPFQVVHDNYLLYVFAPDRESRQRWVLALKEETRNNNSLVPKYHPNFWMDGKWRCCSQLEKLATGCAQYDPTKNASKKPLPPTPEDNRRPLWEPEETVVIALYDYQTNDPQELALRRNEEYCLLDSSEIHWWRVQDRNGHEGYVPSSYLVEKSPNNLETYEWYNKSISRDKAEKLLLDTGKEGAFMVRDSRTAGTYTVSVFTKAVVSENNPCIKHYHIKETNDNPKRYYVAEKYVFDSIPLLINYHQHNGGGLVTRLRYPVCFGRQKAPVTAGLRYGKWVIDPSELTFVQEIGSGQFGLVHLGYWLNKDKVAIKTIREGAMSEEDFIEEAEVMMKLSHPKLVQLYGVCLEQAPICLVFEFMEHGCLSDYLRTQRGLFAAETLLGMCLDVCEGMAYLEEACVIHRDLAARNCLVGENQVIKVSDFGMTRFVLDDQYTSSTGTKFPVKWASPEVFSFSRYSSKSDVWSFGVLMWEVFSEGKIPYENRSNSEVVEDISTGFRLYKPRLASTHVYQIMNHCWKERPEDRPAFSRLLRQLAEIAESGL

For `CC(C)n1cnnc1-c1cccc(N2Cc3ccccc3C2=O)n1`, the IC50 in data set [1] was 14 nM; in [2] it was greater than 20000 nM; in data set [3] it was greater than 20000 nM; in data set [4], 631 nM; in [5], 63.1 nM; in data set [6], 1000 nM. Besides, the IC50 in data set [7] was 1260 nM; in data set [8], greater than 20000 nM; against Ephrin type-A receptor 3, greater than 20000 nM; in data set [10] it was 63.1 nM; in data set [11], 200 nM. For the same compound, the pIC50 at MAP kinase p38 is given as less than 4.7; in data set [9], 7.4.

As to `CC(C)n1cnnc1-c1cccc(NC(=O)[C@H]2CN(c3ccc(C4CC4)nc3)CCO2)n1`, the IC50 in [1] is 17 nM; in data set [17], no more than 500 nM; in data set [18], no more than 500 nM; in data set [19] it was no more than 500 nM; in [20], no more than 500 nM; in data set [21], no more than 500 nM. For the same compound, the IC50 in data set [22], in data set [23] and in [24] was no more than 500 nM in each case. The hepatic extraction ratio in data set [12] was determined as 0.32. Further, in the data set with MDR1 (human), the Papp A→B was 10.7 ×10⁻⁶ cm/s. The solubility is greater than 200 µM in [13] and 101 µM (≈ 43.8 µg/mL) in [14]. For the same compound, in [15], the Fa came to 52%. The compound further showed a bioavailability in data set [16] of 18%. For the same compound, in data set [25], the EC50 was found to be 24 nM. The compound also yielded a Kd in data set [26] of less than 1 nM. The Ratio IC50 in the data set filed under Homo sapiens [27], in the data set listed under Homo sapiens [28], in the data set filed under Homo sapiens [29], in the data set filed under Homo sapiens [30], in the data set listed under Homo sapiens [31] and in the data set filed under Homo sapiens [32] was less than 20 in each case. Moreover, the Ratio IC50 in the data set listed under Homo sapiens [33] and in the data set filed under Homo sapiens [34] was less than 20 in each case.

`CC(C)n1cnnc1-c1cccc(NC(=O)C2CN(C)CCO2)n1` (centres undefined): the IC50 in data set [1] was 2 nM.

With `CC(C)n1cnnc1-c1cccc(NC(=O)C2CCCCO2)n1` (centres undefined), the 50% inhibitory concentration (IC50) is 270 nM in data set [1]; greater than 20000 nM in data set [2]; greater than 20000 nM in [3]; greater than 20000 nM in data set [4]; greater than 20000 nM in [5]; greater than 20000 nM in data set [6]. Besides, the IC50 in [7] is greater than 20000 nM; in [8] it was greater than 20000 nM; at Ephrin type-A receptor 3, greater than 20000 nM; in [10], 3160 nM; in data set [11], greater than 20000 nM. Further, the pIC50 against MAP kinase p38 is recorded as less than 4.7; in data set [9], 6.2.

`CC(C)n1cnnc1-c1cccc(NC(=O)C2CN(c3cccnc3)CCO2)n1` (centres undefined) came in with an IC50 in data set [1] of 31 nM.

In turn, `CC(C)n1cnnc1-c1cccc(NC(=O)C2CN(c3ccccc3)CCO2)n1` (centres undefined) came in with an IC50 in data set [1] of 130 nM.
